Active and inactive are the calls of the source. No rule for the calls is given here.
Tested on: CRE-BLA reporter cells, beta-lactamase FRET, counterscreen
Test: CRE beta-lactamase reporter activation by analogues – cell-based, purchased analogues, beta-lactamase FRET, counter-screen for S1P2 agonist project, SAR follow-up (AID 874)

| SMILES | EC50 |
| --- | --- |
| Cc1sc2ncn(CC(=O)c3cc(C)n(Cc4ccccc4)c3C)c(=O)c2c1C | > 44 µM (inactive) |
| Cc1cc(C(=O)CN2CCN(C(=O)c3ccco3)CC2)c(C)n1Cc1ccccc1 | > 44 µM (inactive) |
| CCOC(=O)c1cc(C)n(Cc2ccccc2)c1C | > 44 µM (inactive) |
| Cc1cc(C(=O)CSc2nnnn2C)c(C)n1Cc1ccccc1 | > 44 µM (inactive) |
| Cc1cc(C(=O)Cn2cnc3c2c(=O)n(C)c(=O)n3C)c(C)n1Cc1ccccc1 | > 44 µM (inactive) |
| Cc1cc(C)nc(SCC(=O)OCC(=O)c2cc(C)n(Cc3ccccc3)c2C)n1 | > 44 µM (inactive) |
| Cc1cc(C(=O)COC(=O)CN2C(=O)C3CCCCC3C2=O)c(C)n1Cc1ccccc1 (centres undefined) | > 44 µM (inactive) |
| Cc1cc(C(=O)CN(C)Cc2ccco2)c(C)n1Cc1ccccc1 | > 44 µM (inactive) |
| Cc1nn(CC(=O)c2cc(C)n(Cc3ccccc3)c2C)c(C)c1[N+](=O)[O-] | > 44 µM (inactive) |
| Cc1cc(C(=O)CN2C(=O)CCC2=O)c(C)n1Cc1ccccc1 | > 44 µM (inactive) |
| CC(=O)Nc1ccc(OCC(=O)c2cc(C)n(Cc3ccccc3)c2C)cc1 | > 44 µM (inactive) |
| Cc1cc(C(=O)CN2C(=O)C(=O)N(Cc3ccccc3)C2=O)c(C)n1Cc1ccc(F)cc1 | > 44 µM (inactive) |
| Cc1cc(C(=O)CN2C(=O)NC(Cc3ccccc3)C2=O)c(C)n1Cc1cccs1 (centres undefined) | > 44 µM (inactive) |
| Cc1cc(C(=O)CN(C)CC(=O)NC(C)(C)C)c(C)n1Cc1ccccc1 | > 44 µM (inactive) |
| Cc1cc(C(=O)CN2C(=O)C(=O)N(Cc3ccco3)C2=O)c(C)n1Cc1ccccc1 | > 44 µM (inactive) |
| Cc1cc(C(=O)COC(=O)C2CSC3(C)CCC(=O)N23)c(C)n1Cc1ccccc1 (centres undefined) | > 44 µM (inactive) |
| Cc1cc(C(=O)CN(C)CC(=O)N2CCCC2)c(C)n1Cc1ccccc1 | > 44 µM (inactive) |
| Cc1cc(C(=O)O)c(C)n1Cc1ccccc1 | > 44 µM (inactive) |
| COc1ccc(NC(=O)CN(C)CC(=O)c2cc(C)n(Cc3ccccc3)c2C)cc1 | > 44 µM (inactive) |
| Cc1cc(C(=O)CN2C(=O)C(=O)N(C3CCCC3)C2=O)c(C)n1Cc1ccccc1 | > 44 µM (inactive) |

| SMILES | EC50 |
| --- | --- |
| Cc1cc(C(=O)CSc2ncn[nH]2)c(C)n1Cc1ccccc1 | > 44 µM (inactive) |
| CC(=O)c1ccc(OCC(=O)c2cc(C)n(Cc3ccccc3)c2C)cc1 | > 44 µM (inactive) |
| Cc1cc(C(=O)CN(C)CC(=O)N2CCOCC2)c(C)n1Cc1ccccc1 | > 44 µM (inactive) |
| Cc1cc(C(=O)CN2C(=O)CCC2=O)c(C)n1Cc1ccc2c(c1)OCO2 | > 44 µM (inactive) |
| CC(=O)Nc1ccc(SCC(=O)c2cc(C)n(Cc3ccccc3)c2C)cc1 | > 44 µM (inactive) |
| Cc1ccc(C(=O)OCC(=O)c2cc(C)n(Cc3ccccc3)c2C)o1 | > 44 µM (inactive) |
| CCCNC(=O)CN(C)CC(=O)c1cc(C)n(Cc2ccccc2)c1C | > 44 µM (inactive) |
| Cc1cc(C(=O)CSc2ncccn2)c(C)n1Cc1ccccc1 | > 44 µM (inactive) |
| Cc1cc(C(=O)CN2C(=O)C(=O)N(Cc3ccccc3)C2=O)c(C)n1Cc1ccco1 | > 44 µM (inactive) |
| CCC1(CC)NC(=O)N(CC(=O)OCC(=O)c2cc(C)n(Cc3ccccc3)c2C)C1=O | > 44 µM (inactive) |
| Cc1cc(C(=O)CN2C(=O)C(=O)N(C)C2=O)c(C)n1Cc1ccccc1 | > 44 µM (inactive) |
| Cc1cc(C(=O)COC(=O)CCS(=O)(=O)c2ccccc2)c(C)n1Cc1ccccc1 | > 44 µM (inactive) |
| Cc1cc(C(=O)Cn2cnc3c(oc4ccccc43)c2=O)c(C)n1Cc1ccccc1 | > 44 µM (inactive) |
| Cc1cc(C(=O)COC(=O)CN2C(=O)NC(C)(C)C2=O)c(C)n1Cc1ccccc1 | > 44 µM (inactive) |
| Cc1cc(C(=O)CN(C)CC(=O)NC(C)C)c(C)n1Cc1ccccc1 | > 44 µM (inactive) |
| Cc1cc(C(=O)CN2C(=O)NC(Cc3ccccc3)C2=O)c(C)n1Cc1ccccc1 (centres undefined) | > 44 µM (inactive) |
| Cc1cc(C(=O)COc2ccc(C(N)=O)cc2)c(C)n1Cc1ccccc1 | > 44 µM (inactive) |
| Cc1cc(C(=O)COC(=O)c2ccco2)c(C)n1Cc1ccccc1 | > 44 µM (inactive) |
| CNC(=O)c1ccc(CN(C)CC(=O)c2cc(C)n(Cc3ccccc3)c2C)cc1 | > 44 µM (inactive) |
| COc1cccc(C2(C)NC(=O)N(CC(=O)c3cc(C)n(Cc4ccccc4)c3C)C2=O)c1 (centres undefined) | > 44 µM (inactive) |

| SMILES | EC50 |
| --- | --- |
| COCCNC(=O)CN(C)CC(=O)c1cc(C)n(Cc2ccccc2)c1C | > 44 µM (inactive) |
| Cc1cc(C(=O)CN2C(=O)C(=O)N(Cc3ccccc3)C2=O)c(C)n1Cc1ccccc1 | > 44 µM (inactive) |
| Cc1cc(C(=O)CN2C(=O)NC3(CCc4ccccc43)C2=O)c(C)n1Cc1ccccc1 (centres undefined) | > 44 µM (inactive) |
| Cc1cc(C(=O)CSc2nnnn2C2CC2)c(C)n1Cc1ccccc1 | > 44 µM (inactive) |
| CCNC(=O)CN(CC)CC(=O)c1cc(C)n(Cc2ccccc2)c1C | > 44 µM (inactive) |
| Cc1cc(C(=O)CSc2nnc(C3CC3)n2C)c(C)n1Cc1ccccc1 | > 44 µM (inactive) |
| Cc1cc(C(=O)COC(=O)Cn2c(=O)oc3ccccc32)c(C)n1Cc1ccccc1 | > 44 µM (inactive) |
| COc1ccc(C(N)=O)c(OCC(=O)c2cc(C)n(Cc3ccccc3)c2C)c1 | > 44 µM (inactive) |
| Cc1cc(C(=O)CN2C(=O)NC3(CCOc4ccccc43)C2=O)c(C)n1Cc1ccccc1 (centres undefined) | > 44 µM (inactive) |
| Cc1noc(C)c1C(=O)OCC(=O)c1cc(C)n(Cc2ccccc2)c1C | > 44 µM (inactive) |
| Cc1cc(C(=O)CSc2nnnn2C(C)(C)C)c(C)n1Cc1ccccc1 | > 44 µM (inactive) |
| Cc1cc(C(=O)COC(=O)C2CCC2)c(C)n1Cc1ccccc1 | > 44 µM (inactive) |
| Cc1cc(C(=O)CN(C)CC(=O)NC2CC2)c(C)n1Cc1ccccc1 | > 44 µM (inactive) |
| Cc1cc(C(=O)CN(C)CC(=O)N(C)C)c(C)n1Cc1ccccc1 | > 44 µM (inactive) |
| Cc1cc(C(=O)COC(=O)Cn2cnc3ccccc3c2=O)c(C)n1Cc1ccccc1 | > 44 µM (inactive) |
| CC(=O)c1cccc(OCC(=O)c2cc(C)n(Cc3ccccc3)c2C)c1 | > 44 µM (inactive) |
| Cc1cc(C(=O)COC(=O)C(O)c2ccccc2)c(C)n1Cc1ccccc1 (centres undefined) | > 44 µM (inactive) |
| Cc1cc(C(=O)Cn2cc(C(F)(F)F)ccc2=O)c(C)n1Cc1ccccc1 | > 44 µM (inactive) |
| Cc1nc(C)c(C(=O)OCC(=O)c2cc(C)n(Cc3ccccc3)c2C)s1 | > 44 µM (inactive) |
